The molecules below were run against HIF PHD2 (Homo sapiens, UniProt Q9GZT9) (assay: PHD2 inhibition assay (TR-FRET, VCB-Eu detection of hydroxylated P564-HIF1α peptide)). Conditions: 2 nM PHD2, 100 nM P564-HIF1α peptide, 0.25 μM 2-oxoglutarate, 100 μM FeCl2, 2 mM ascorbic acid.
Type: biochemical
Protocol: Inhibition of HIF PHD2 activity was quantified utilizing the TR-FRET technology. HIF PHD2 catalyzes a hydroxyl modification on the proline residue of the P564-HIF1α peptide substrate (Biotin-DLEMLAPYIPMDDDFQL (SEQ ID NO: 7)) resulting in recognition and binding of the europylated Von Hippel-Lindau protein (pVHL), elongin B and elongin C heterotrimeric (VCB-Eu) complex.
The PHD2 inhibition assay was executed by addition of freshly dissolved FeCl2 to 178.57 μM (100 μM final concentration) in PHD2 Reaction Buffer containing 30 mM MES, pH 6, 10 mM NaCl, 0.25% Brij-35, 0.01% BSA, and 1% DMSO. 28 μL of the iron solution and 2 μL of inhibitor compounds serially diluted in 100% DMSO (5% DMSO final) were added to black polypropylene 96-well microtiter plates. To that, 10 μL of 10 nM PHD2 (2 nM final) was added to all wells of the plate except for the 8 wells of column 12 (LO control), and allowed to incubate at room temperature on the shaker for one hour. Column 6 was the HI control containing PHD2 enzyme and 5% DMSO vehicle, but no inhibitor compound. To initiate the PHD2 enzymatic reaction, 10 μL of a solution containing 500 nM P564-HIF1α peptide (100 nM final), 10 mM ascorbic acid (2 mM final), and 1.25 μM 2-oxoglutarate (α-ketoglutarate; 0.25 μM final) in PHD2 Reaction Buffer was added to all wells of the plate and allowed to incubate on the shaker at room temperature for one hour.
The reaction was terminated by addition of 25 μL TR-FRET Buffer (50 mM TRIS-HCl, pH 9, 100 mM NaCl, 0.05% BSA, and 0.5% Tween-20) containing 150 mM succinate (product inhibitor; 50 mM final), 75 nM streptavidin-APC (25 nM final), and 7.5 nM VCB-Eu (2.5 nM final). The TR-FRET detection reagents were placed on a shaker for 1 hour to reach binding equilibrium before reading on the Discovery platform (PerkinElmer). Europium is excited at 315 nm and phosphoresces at 615 nm with a large Stoke's shift. APC, in turn, emits at 655 nm upon excitation at 615 nm. The TR-FRET signal is measured as the ratio of the APC 655 nm signal divided by the internal europium reference 615 nm emission signal.
The POC (percentage of control) was determined by comparing the signal from hydroxylated peptide substrate in the enzyme reaction containing inhibitor compound with that from PHD2 enzyme with DMSO vehicle alone (HI control), and no enzyme (LO control). POC was calculated using the formula: % control (POC)=(cpd−average LO)/(average HI−average LO)*100. Data (consisting of POC and inhibitor concentration in μM) was fitted to a 4-parameter equation (y=A+((B−A)/(1+((x/C)^D))), where A is the minimum y (POC) value, B is the maximum y (POC), C is the x (cpd concentration) at the point of inflection and D is the slope factor) using a Levenburg-Marquardt non-linear regression algorithm.

Sequence of HIF PHD2 (Q9GZT9 whole entry): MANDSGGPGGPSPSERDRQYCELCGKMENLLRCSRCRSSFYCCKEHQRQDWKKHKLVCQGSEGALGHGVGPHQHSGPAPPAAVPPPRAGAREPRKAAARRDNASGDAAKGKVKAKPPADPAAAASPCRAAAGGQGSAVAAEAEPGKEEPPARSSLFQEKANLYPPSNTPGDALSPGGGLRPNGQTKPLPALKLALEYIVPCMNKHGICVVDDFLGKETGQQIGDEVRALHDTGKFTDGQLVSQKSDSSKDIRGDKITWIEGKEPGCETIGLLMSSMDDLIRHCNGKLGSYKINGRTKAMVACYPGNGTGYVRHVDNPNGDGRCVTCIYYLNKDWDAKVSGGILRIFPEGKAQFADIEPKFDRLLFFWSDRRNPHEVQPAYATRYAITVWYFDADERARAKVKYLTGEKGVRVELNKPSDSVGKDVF

IC50 [nM] | Structure (SMILES)
< 100 | COc1cccc2c1C(O)=C(C(=O)NCC(=O)O)C(=O)C21CCOCC1 [Example 18, N-((5-Methoxy-4-hydroxy-2-oxo-2′,3′,5′,6′-tetrahydro-spiro[naphthalene-1,4′-pyran]-3-yl)carbonyl)glycine]
< 100 | COc1ccc2c(c1)C1(CCOCC1)C(=O)C(C(=O)NCC(=O)O)=C2O [Example 19, N-((4-Hydroxy-7-(methyloxy)-2-oxo-2′,3′,5′,6′-tetrahydro-spiro[naphthalene-1,4′-pyran]-3-yl)carbonyl)glycine]
100 to 500 | CC1(C)C(=O)C(C(=O)NCC(=O)O)=C(O)c2ccc(OCc3ccccc3)c(F)c21 [Example 20, N-((8-Fluoro-4-hydroxy-1,1-dimethyl-2-oxo-7-((phenylmethyl)oxy)-naphthalen-3-yl)carbonyl)glycine]
100 to 500 | CC(C)COc1ccc2c(c1F)C(C)(C)C(=O)C(C(=O)NCC(=O)O)=C2O [Example 21, N-((8-Fluoro-4-hydroxy-1,1-dimethyl-7-((2-methylpropyl)oxy)-2-oxo-naphthalen-3-yl)carbonyl)glycine]
100 to 500 | COc1ccc2c(c1F)C(C)(C)C(=O)C(C(=O)NCC(=O)O)=C2O [Example 22, N-((8-Fluoro-4-hydroxy-1,1-dimethyl-7-(methyloxy)-2-oxo-naphthalen-3-yl)carbonyl)glycine]
< 100 | CC1(C)C(=O)C(C(=O)NCC(=O)O)=C(O)c2ccc(O)c(F)c21 [Example 23, N-((8-Fluoro-4,7-dihydroxy-1,1-dimethyl-2-oxo-naphthalen-3-yl)carbonyl)glycine]
< 100 | CC1(C)C(=O)C(C(=O)NCC(=O)O)=C(O)c2ccc(F)c(F)c21 [Example 24, N-((7,8-Difluoro-4-hydroxy-1,1-dimethyl-2-oxo-naphthalen-3-yl)carbonyl)glycine]
100 to 500 | O=C(O)CNC(=O)C1=C(O)c2cc(Cl)ccc2C2(CCCC2)C1=O [Example 25, N-((6′-Chloro-4′-hydroxy-2′-oxo-spiro[cyclopentane-1,1′-naphthalen]-3′-yl)carbonyl)glycine]
100 to 500 | CC1(C)C(=O)C(C(=O)NCC(=O)O)=C(O)c2c(C(F)(F)F)cccc21 [Example 26, N-((4-Hydroxy-1,1-dimethyl-2-oxo-5-(trifluoromethyl)-naphthalen-3-yl)carbonyl)glycine]
< 100 | CC1(C)C(=O)C(C(=O)NCC(=O)O)=C(O)c2cccc(F)c21 [Example 27, N-((8-Fluoro-4-hydroxy-1,1-dimethyl-2-oxo-naphthalen-3-yl)carbonyl)glycine]
< 100 | CC1(C#N)C(=O)C(C(=O)NCC(=O)O)=C(O)c2ccccc21 (stereo not shown) [Example 28, N-((1-Cyano-4-hydroxy-1-methyl-2-oxo-naphthalen-3-yl)carbonyl)glycine]
< 100 | CC1(C)C(=O)C(C(=O)NCC(=O)O)=C(O)c2ccc(Cl)c(Cl)c21 [Example 31, N-((7,8-Dichloro-4-hydroxy-1,1-dimethyl-2-oxo-naphthalen-3-yl)carbonyl)glycine]
100 to 500 | CC1(C)C(=O)C(C(=O)NCC(=O)O)=C(O)c2cc(-c3ccc(F)cc3)ccc21 [Example 32, N-((6-(4-Fluorophenyl)-4-hydroxy-1,1-dimethyl-2-oxo-naphthalen-3-yl)carbonyl)glycine]
< 100 | CSc1ccc2c(c1)C(O)=C(C(=O)NCC(=O)O)C(=O)C2(C)C [Example 33, N-((4-Hydroxy-1,1-dimethyl-6-(methylthio)-2-oxo-naphthalen-3-yl)carbonyl)glycine]
100 to 500 | CC1(c2ccc(Cl)cc2)C(=O)C(C(=O)NCC(=O)O)=C(O)c2cc(Cl)ccc21 (stereo not shown) [Example 34, N-((6-Chloro-1-(4-chlorophenyl)-4-hydroxy-1-methyl-2-oxo-naphthalen-3-yl)carbonyl)glycine]
100 to 500 | CN(C)c1ccccc1-c1ccc2c(c1)C(O)=C(C(=O)NCC(=O)O)C(=O)C2(C)C [Example 35, N-((6-(2-(Dimethylamino)phenyl)-4-hydroxy-1,1-dimethyl-2-oxo-naphthalen-3-yl)carbonyl)glycine]
